The test system of this assay is IDH1-mutant advanced solid tumors. As to conditions: Cmax,ss or AUCss vs best response, dose range tested. The text has this:
A total of 6 adverse event categories, based on both laboratory abnormalities and reported adverse events, were included in the exposure-response analyses. […] The efficacy endpoint of interest was best response. The exposure-response analyses used modeled nominal steady-state Cmax (Cmax,ss) or AUC (AUCss) as predictors for safety and efficacy variables in the two subgroups of tumor types described earlier.

Consider `N#Cc1ccnc(N2C(=O)CC[C@H]2C(=O)N(c2cncc(F)c2)[C@H](C(=O)NC2CC(F)(F)C2)c2ccccc2Cl)c1` [ivosidenib], for which the exposure-efficacy relationship entry is on record as “flat”.

(Values after paper PMC7066280 (Investigational New Drugs, 2019).)
